In patent publication US11192899B2 (MERCK PATENT GMBH, priority 2017, dated 2021):
Where two headings read alike, the source gives them in different places.

Columns and labels:
Type in all cases: cell-based
human A3 receptor = target: T1, human A3 receptor (Homo sapiens, UniProt P0DMS8); assay: cAMP HTRF functional assay, recombinant CHO cells expressing human A3 receptor, forskolin and agonist IB-MECA
T1 construct: expressed in transfected cells; host or cells: CHO
T1 sequence (P0DMS8 1-318): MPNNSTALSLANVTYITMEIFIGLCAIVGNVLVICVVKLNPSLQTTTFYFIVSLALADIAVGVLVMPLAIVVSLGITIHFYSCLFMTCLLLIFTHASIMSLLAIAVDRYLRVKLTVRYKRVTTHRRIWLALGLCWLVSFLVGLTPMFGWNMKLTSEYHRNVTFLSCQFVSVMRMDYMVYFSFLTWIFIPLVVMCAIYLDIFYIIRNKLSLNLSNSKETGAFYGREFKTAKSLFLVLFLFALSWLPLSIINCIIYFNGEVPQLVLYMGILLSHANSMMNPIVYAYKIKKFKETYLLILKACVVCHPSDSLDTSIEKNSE
Procedure: (§1) The functional activities of human A2A, A2B, A1 and A3 receptors were determined by quantification of cAMP, being the second messenger for adenosine receptors.
(§2) For human A1 and A3 receptors, recombinant CHO cells, expressing either A1 or A3-receptor, were used. As both receptors couple to Gi proteins, the assay protocol was adapted:
(§3) Cells were seeded into 384-well plates, forskolin, test compounds and agonists (CPA for A1- and IB-MECA for A3-receptor) were added. After 30 min incubation, HTRF reagents (cAMP dynamic 2, Cis Bio) were added and the cellular cAMP levels were determined using the ENVISION (Perkin Elmer) plate reader.
(§4) Obtained raw data were normalized against the inhibitor control and the neural control (DMSO) and the normalized data were fitted using GeneData software.

human A2A receptor = target: T2, human A2A receptor (Homo sapiens, UniProt P29274); assay: cAMP HTRF functional assay, recombinant HEK293 cells expressing human A2A receptor, agonist NECA
T2 construct: expressed in transfected cells; host or cells: HEK293
T2 sequence (P29274 whole entry): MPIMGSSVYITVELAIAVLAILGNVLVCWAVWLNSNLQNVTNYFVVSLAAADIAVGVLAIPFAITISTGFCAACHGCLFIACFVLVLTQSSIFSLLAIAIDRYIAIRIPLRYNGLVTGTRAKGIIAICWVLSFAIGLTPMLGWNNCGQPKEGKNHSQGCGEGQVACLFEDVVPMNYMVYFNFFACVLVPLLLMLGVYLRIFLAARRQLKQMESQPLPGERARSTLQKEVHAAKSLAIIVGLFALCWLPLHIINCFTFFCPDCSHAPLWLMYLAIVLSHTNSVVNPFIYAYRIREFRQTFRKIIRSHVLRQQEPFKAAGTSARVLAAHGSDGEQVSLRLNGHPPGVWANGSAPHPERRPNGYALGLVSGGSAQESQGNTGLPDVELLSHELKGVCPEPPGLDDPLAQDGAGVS
Procedure: as §1, §4

human A1 receptor = target: T3, human A1 receptor (Homo sapiens, UniProt P30542); assay: cAMP HTRF functional assay, recombinant CHO cells expressing human A1 receptor, forskolin and agonist CPA
T3 construct: expressed in transfected cells; host or cells: CHO
T3 sequence (P30542 1-326): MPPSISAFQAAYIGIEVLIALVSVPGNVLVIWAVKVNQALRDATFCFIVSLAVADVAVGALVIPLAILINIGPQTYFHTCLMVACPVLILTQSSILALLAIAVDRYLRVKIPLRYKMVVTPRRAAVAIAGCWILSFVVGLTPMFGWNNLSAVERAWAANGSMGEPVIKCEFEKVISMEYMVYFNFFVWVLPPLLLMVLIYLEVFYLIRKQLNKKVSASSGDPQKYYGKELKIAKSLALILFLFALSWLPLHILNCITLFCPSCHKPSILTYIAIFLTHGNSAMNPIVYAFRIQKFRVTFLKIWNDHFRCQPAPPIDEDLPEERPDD
Procedure: as §1, §2, §3, §4

A2B receptors = target: T4, A2B receptors (Homo sapiens, UniProt P29275); assay: cAMP HTRF functional assay, recombinant HEK293 cells expressing human A2B receptor, agonist NECA; design: expressed in transfected cells; host or cells: HEK293
T4 sequence (P29275 1-332): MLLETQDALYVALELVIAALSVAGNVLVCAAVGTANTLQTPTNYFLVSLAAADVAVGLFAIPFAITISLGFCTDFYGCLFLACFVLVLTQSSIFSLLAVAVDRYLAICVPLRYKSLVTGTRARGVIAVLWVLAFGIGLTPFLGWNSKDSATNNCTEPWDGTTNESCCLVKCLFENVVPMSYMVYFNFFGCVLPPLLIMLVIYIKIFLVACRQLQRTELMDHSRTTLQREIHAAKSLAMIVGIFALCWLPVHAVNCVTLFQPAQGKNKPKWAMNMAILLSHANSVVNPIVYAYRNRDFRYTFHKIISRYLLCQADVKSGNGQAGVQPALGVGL
Procedure: as §1, §4

[1] = recombinant HEK293 cells, cAMP, agonist NECA

Row | IC50 (human A3 receptor) [nM] | IC50 (human A2A receptor; [1]) [nM] | IC50 (human A1 receptor) [nM] | IC50 (A2B receptors; [1]) [nM] | IC50 (human A2A receptor) [nM] | IC50 (A2B receptors) [nM] | Compound
1 | > 1000 | < 100 | > 1000 | < 1000 |  |  | 4-hydroxy-N-[8-methoxy-5-(2-methylphenyl)quinoxalin-2-yl]-4-methylpiperidine-1-carboxamide [compound 29]
2 | > 1000 |  | > 1000 |  | < 100 | > 1000 | COc1ccc(C2CCOCC2)c2ncc(NC(=O)c3coc(C)n3)nc12 [compound 16]
3 | > 1000 |  | < 1000 |  | < 10 | < 100 | COc1ccc(-c2ccccc2)c2ncc(NC(=O)c3cnc(C)s3)nc12 [compound 48]
4 | < 1000 |  | < 1000 |  | < 10 | < 100 | COc1ccc(-c2ccccc2)c2ncc(NC(=O)c3cnc(C)o3)nc12 [compound 105, N-(8-methoxy-5-phenylquinoxalin-2-yl)-2-methyl-1,3-oxazole-5-carboxamide]
5 | > 1000 |  | < 1000 |  | < 10 | < 100 | COc1ncc(C2CCOCC2)c2ncc(NC(=O)C3CC3)nc12 [compound 106, Cyclopropanecarboxylic acid [5-methoxy-8-(tetrahydro-pyran-4-yl)-pyrido[3,4-b]pyrazin-3-yl]-amide]
6 | > 1000 |  | > 1000 |  | < 100 | > 1000 | COCCOCc1cccc(-c2ccc(OC)c3nc(NC(=O)N4CCC(C)(O)CC4)cnc23)c1 [compound 118, 4-hydroxy-N-(8-methoxy-5-{3-[(2-methoxyethoxy)methyl]phenyl}quinoxalin-2-yl)-4-methylpiperidine-1-carboxamide]
7 | < 1000 |  | < 1000 |  | < 10 | < 100 | COc1ccc(-c2ccccc2F)c2ncc(NC(=O)C3CC3)nc12 [compound 120, N-[5-(2-fluorophenyl)-8-methoxyquinoxalin-2-yl]cyclopropanecarboxamide]
8 | < 1000 |  | < 1000 |  | < 100 | < 1000 | COc1ccc(-c2cccnc2)c2ncc(NC(=O)C3CC3)nc12 [compound 121, N-[8-methoxy-5-(pyridin-3-yl)quinoxalin-2-yl]cyclopropanecarboxamide]
9 | > 1000 |  | > 1000 |  | < 100 |  | COc1ccc(N2CCCCCC2)c2ncc(NC(=O)C3CC3)nc12 [compound 122, N-[5-(azepan-1-yl)-8-methoxyquinoxalin-2-yl]cyclopropanecarboxamide]
10 | < 1000 |  | < 1000 |  | < 10 | < 100 | COc1ccc(-c2cccc(F)c2F)c2ncc(NC(=O)C3CC3)nc12 [compound 123, N-[5-(2,3-difluorophenyl)-8-methoxyquinoxalin-2-yl]cyclopropanecarboxamide]
11 | < 1000 |  | < 1000 |  | < 10 | > 1000 | COc1ccc(-c2cc(F)ccc2F)c2ncc(NC(=O)C3CC3)nc12 [compound 124, N-[5-(2,5-difluorophenyl)-8-methoxyquinoxalin-2-yl]cyclopropanecarboxamide]
12 | < 1000 |  | < 1000 |  | < 10 | < 100 | COc1ccc(-c2ccc(F)cc2)c2ncc(NC(=O)C3CC3)nc12 [compound 126, N-[5-(4-fluorophenyl)-8-methoxyquinoxalin-2-yl]cyclopropanecarboxamide]
13 | < 1000 |  | > 1000 |  | < 100 |  | COc1ccc(-c2cc(F)ccc2F)c2ncc(NC(=O)c3cnc(C)o3)nc12 [compound 128, N-[5-(2,5-difluorophenyl)-8-methoxyquinoxalin-2-yl]-2-methyl-1,3-oxazole-5-carboxamide]
14 | < 1000 |  | < 1000 |  | < 10 | < 100 | COc1ccc(-c2ccc(F)cc2)c2ncc(NC(=O)c3cnc(C)o3)nc12 [compound 131, N-[5-(4-fluorophenyl)-8-methoxyquinoxalin-2-yl]-2-methyl-1,3-oxazole-5-carboxamide]
15 | > 1000 |  | < 1000 |  | < 10 | < 100 | COc1ccc(C2=CCOCC2)c2ncc(NC(=O)c3cnc(C)s3)nc12 [compound 134, N-[5-(3,6-dihydro-2H-pyran-4-yl)-8-methoxyquinoxalin-2-yl]-2-methyl-1,3-thiazole-5-carboxamide]
16 | > 1000 |  | < 1000 |  | < 10 | < 100 | COc1ccc(C2=CCOCC2)c2ncc(NC(=O)c3cnsc3)nc12 [compound 136, N-[5-(3,6-dihydro-2H-pyran-4-yl)-8-methoxyquinoxalin-2-yl]-1,2-thiazole-4-carboxamide]
17 | > 1000 |  | < 10 |  | < 100 | < 100 | COc1ccc(-c2cccnc2)c2ncc(NC(=O)c3cnc(C)o3)nc12 [compound 138, N-[8-methoxy-5-(pyridin-3-yl)quinoxalin-2-yl]-2-methyl-1,3-oxazole-5-carboxamide]
18 |  |  | > 1000 |  | < 100 | > 1000 | COc1ccc(C2=CCOCC2)c2ncc(NC(=O)c3csc(N)n3)nc12 [compound 139, 2-amino-N-[5-(3,6-dihydro-2H-pyran-4-yl)-8-methoxyquinoxalin-2-yl]-1,3-thiazole-4-carboxamide]
19 |  |  | < 1000 |  | < 10 | < 100 | COc1ccc(C2=CCOCC2)c2ncc(NC(=O)c3ncc(C4CCOC4)s3)nc12 (centres unmarked) [compound 140, N-[5-(3,6-dihydro-2H-pyran-4-yl)-8-methoxyquinoxalin-2-yl]-5-(oxolan-3-yl)-1,3-thiazole-2-carboxamide]
20 |  |  | > 1000 |  | < 10 | > 1000 | COc1ccc(C2=CCOCC2)c2ncc(NC(=O)c3coc(CN)c3)nc12 [compound 142, 5-(aminomethyl)-N-[5-(3,6-dihydro-2H-pyran-4-yl)-8-methoxyquinoxalin-2-yl]furan-3-carboxamide]
21 |  |  | > 1000 |  | < 100 | > 1000 | CCOC(=O)c1nnc(NC(=O)Nc2cnc3c(C4=CCOCC4)ccc(OC)c3n2)s1 [compound 143, ethyl 5-({[5-(3,6-dihydro-2H-pyran-4-yl)-8-methoxyquinoxalin-2-yl]carbamoyl}amino)-1,3,4-thiadiazole-2-carboxylate]
22 | < 1000 |  | > 1000 |  | < 100 |  | COc1ccc(-c2ccccc2)c2ncc(NC(=O)C3(C(=O)N(C)C)CC3)nc12 [compound 149, N′1-(8-methoxy-5-phenylquinoxalin-2-yl)-N1,N1-dimethylcyclopropane-1,1-dicarboxamide]
23 | > 1000 |  |  |  | < 100 |  | COCCOc1cccc(-c2ccc(OC)c3nc(NC(=O)c4nnc(C)s4)cnc23)c1 [compound 152, N-{8-methoxy-5-[3-(2-methoxyethoxy)phenyl]quinoxalin-2-yl}-5-methyl-1,3,4-thiadiazole-2-carboxamide]
24 |  |  | < 1000 |  | < 100 | < 100 | COc1ccc(C2=CCOCC2)c2ncc(NC(=O)c3cnc[nH]3)nc12 [compound 159, N-[5-(3,6-dihydro-2H-pyran-4-yl)-8-methoxyquinoxalin-2-yl]-1H-imidazole-5-carboxamide]
25 |  |  | > 1000 |  | < 100 | < 100 | COc1ccc(-c2ccccc2)c2ncc(NC(=O)c3cnc[nH]3)nc12 [compound 160, N-(8-methoxy-5-phenylquinoxalin-2-yl)-1H-imidazole-5-carboxamide]
